# Biological target: T1, Human orexin receptor type 2 (Homo sapiens, UniProt O43614)
# T1 sequence (O43614 1-444): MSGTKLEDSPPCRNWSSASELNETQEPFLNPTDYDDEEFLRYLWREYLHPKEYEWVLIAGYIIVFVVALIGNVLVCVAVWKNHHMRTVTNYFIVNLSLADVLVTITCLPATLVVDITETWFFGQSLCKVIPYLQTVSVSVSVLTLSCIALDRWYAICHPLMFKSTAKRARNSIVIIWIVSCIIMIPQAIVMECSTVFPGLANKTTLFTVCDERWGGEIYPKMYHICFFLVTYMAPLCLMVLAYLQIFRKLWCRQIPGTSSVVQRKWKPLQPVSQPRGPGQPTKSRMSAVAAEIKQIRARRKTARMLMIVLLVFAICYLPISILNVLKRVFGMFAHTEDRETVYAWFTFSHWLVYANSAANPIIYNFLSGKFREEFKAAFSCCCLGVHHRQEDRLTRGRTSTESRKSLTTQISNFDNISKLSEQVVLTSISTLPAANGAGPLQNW
# Assay: Test Example 1: agonist activity for orexin receptor type 2 (aequorin luminescence, intracellular calcium mobilization)
# Details: compound 10 μm; CHO cells transiently expressing human orexin receptor type 2 and apoaequorin; relative percentage of luminescence for the luminescence (100%) of Orexin A (100 μM)
row,SMILES,Agonist Activity (%)
1,"CC(C)N1CCN(c2cccc(F)c2NC(=S)N2CCC(C)(c3noc(C4CC4)n3)CC2)CC1 [Example 57, 4-(5-cyclopropyl-1,2,4-oxadiazol-3-yl)-N-{2-fluoro-6-[4-(propan-2-yl)piperazin-1-yl]phenyl}-4-methylpiperidine-1-carbothioamide]",171
2,"CC(C)N1CCN(c2cccc(Cl)c2NC(=O)N2CCC(C)(c3noc(C4(C)CC4)n3)CC2)CC1 [Example 80, N-{2-chloro-6-[4-(propan-2-yl)piperazin-1-yl]phenyl}-4-methyl-4-[5-(1-methylcyclopropyl)-1,2,4-oxadiazol-3-yl]piperidine-1-carboxamide]",157
3,"Cc1ccc(C2CCN(C(=O)Nc3ccccc3N3CCN(C(C)C)CC3)CC2)c(F)c1 [Example 18, 4-(2-fluoro-4-methylphenyl)-N-{2-[4-(propan-2-yl)piperazin-1-yl]phenyl}piperidine-1-carboxamide]",128
4,"CCN1CCN(c2ccccc2NC(=O)N2CCC(c3nc4ccccc4o3)CC2)CC1 [Example 2, 4-(1,3-benzoxazol-2-yl)-N-[2-(4-ethylpiperazin-1-yl)phenyl]piperidine-1-carboxamide]",35
5,"Cc1ccc(C2CCN(C(=S)Nc3c(F)cccc3N3CCN(C(C)C)CC3)CC2)cc1 [Example 64, N-{2-fluoro-6-[4-(propan-2-yl)piperazin-1-yl]phenyl}-4-(4-methylphenyl)piperidine-1-carbothioamide]",140
6,"Cc1ccc(C2CCN(C(=O)Nc3c(F)cccc3C3=CCN(C(C)CF)CC3)CC2)cc1 (stereo not drawn) [Example 134, N-{2-fluoro-6-[1-(1-fluoropropan-2-yl)-1,2,3,6-tetrahydropyridin-4-yl]phenyl}-4-(4-methylphenyl)piperidine-1-carboxamide]",135
7,"CC(C)N1CCN(c2ccccc2NC(=O)N2CCC(C)(c3nc(-c4cccnc4)no3)CC2)CC1 [Example 13, 4-methyl-N-{2-[4-(propan-2-yl)piperazin-1-yl]phenyl}-4-[3-(pyridin-3-yl)-1,2,4-oxadiazol-5-yl]piperidine-1-carboxamide]",99
8,"Cc1ccc(C2CCN(C(=O)Nc3ccc(F)cc3N3CCN(C(C)C)CC3)CC2)cc1 [Example 10, N-{4-fluoro-2-[4-(propan-2-yl)piperazin-1-yl]phenyl}-4-(4-methylphenyl)piperidine-1-carboxamide]",34
9,"Cc1nc(C2(C)CCN(C(=O)Nc3c(F)cccc3N3CCN(C(C)C)CC3)CC2)no1 [Example 22, N-{2-fluoro-6-[4-(propan-2-yl)piperazin-1-yl]phenyl}-4-methyl-4-(5-methyl-1,2,4-oxadiazol-3-yl)piperidine-1-carboxamide]",97
10,"CCc1nc(C2(C)CCN(C(=O)Nc3c(Cl)cccc3N3CCN(C(C)C)CC3)CC2)no1 [Example 83, N-{2-chloro-6-[4-(propan-2-yl)piperazin-1-yl]phenyl}-4-(5-ethyl-1,2,4-oxadiazol-3-yl)-4-methylpiperidine-1-carboxamide]",146
11,"CC(C)N1CCN(c2cccc(F)c2NC(=O)N2CCC(C)(C3CCCC3)CC2)CC1 [Example 91, 4-cyclopentyl-N-{2-fluoro-6-[4-(propan-2-yl)piperazin-1-yl]phenyl}-4-methylpiperidine-1-carboxamide]",195
12,"CC(C)N1CCN(c2ccccc2NC(=O)N2CCC(c3ccccc3)CC2)CC1 [Example 7, 4-phenyl-N-{2-[4-(propan-2-yl)piperazin-1-yl]phenyl}piperidine-1-carboxamide]",154
13,"CC(C)c1ccc(-c2cccc(F)c2NC(=O)N2CCC(C)(c3cc(C4CC4)on3)CC2)cn1 [Example 59, 4-(5-cyclopropyl-1,2-oxazol-3-yl)-N-{2-fluoro-6-[6-(propan-2-yl)pyridin-3-yl]phenyl}-4-methylpiperidine-1-carboxamide]",158
14,"CC(C)N1CC(Oc2cccc(Cl)c2NC(=O)N2CCC(C)(c3noc(C4CC4)n3)CC2)C1 [Example 160, N-(2-chloro-6-{[1-(propan-2-yl)azetidin-3-yl]oxy}phenyl)-4-(5-cyclopropyl-1,2,4-oxadiazol-3-yl)-4-methylpiperidine-1-carboxamide]",141
15,"Cc1nnc(C2(C)CCN(C(=O)Nc3ccccc3N3CCN(C(C)C)CC3)CC2)o1 [Example 165, 4-Methyl-4-(5-methyl-1,3,4-oxadiazol-2-yl)-N-{2-[4-(propan-2-yl)piperazin-1-yl]phenyl}piperidine-1-carboxamide]",96
16,"Cc1cnc(C2CCN(C(=O)Nc3c(Cl)cccc3N3CCN(C(C)C)CC3)CC2)nc1 [Example 98, N-{2-chloro-6-[4-(propan-2-yl)piperazin-1-yl]phenyl}-4-(5-methylpyrimidin-2-yl)piperidine-1-carboxamide]",165
17,"Cc1ccc(C2CCN(C(=O)Nc3c(F)cccc3C3=CCN(C(CF)CF)CC3)CC2)cc1 [Example 136, N-{2-[1-(1,3-difluoropropan-2-yl)-1,2,3,6-tetrahydropyridin-4-yl]-6-fluorophenyl}-4-(4-methylphenyl)piperidine-1-carboxamide]",105
18,"Cc1noc(C2(F)CCN(C(=O)Nc3ccccc3N3CCN(C(C)C)CC3)CC2)n1 [Example 164, 4-fluoro-4-(3-methl-1,2,4-oxadiazol-5-yl)-N-{2-[4-(propan-2-yl)piperazin-1-yl]phenyl}piperidine-1-carboxamide]",128
19,"Cc1cc(C2(C)CCN(C(=O)Nc3c(F)cccc3N3CCN(C(C)C)CC3)CC2)no1 [Example 85, N-{2-fluoro-6-[4-(propan-2-yl)piperazin-1-yl]phenyl}-4-methyl-4-(5-methyl-1,2-oxazol-3-yl)piperidine-1-carboxamide]",145
20,"Cc1onc(C2(C)CCN(C(=O)Nc3c(Cl)cccc3N3CCN(C(C)C)CC3)CC2)c1Cl [Example 90, 4-(4-chloro-5-methyl-1,2-oxazol-3-yl)-N-{2-chloro-6-[4-(propan-2-yl)piperazin-1-yl]phenyl}-4-methylpiperidine-1-carboxamide]",164
21,"CC(C)N1CC=C(c2cccc(Cl)c2NC(=O)N2CCC(C)(C#N)CC2)CC1 [Example 158, N-{2-chloro-6-[1-(propan-2-yl)-1,2,3,6-tetrahydropyridin-4-yl]phenyl}-4-cyano-4-methylpiperidine-1-carboxamide]",133
22,"Cc1nc(C2(C)CCN(C(=O)Nc3c(Cl)cccc3N3CCN(C(C)C)CC3)CC2)no1 [Example 81, N-{2-chloro-6-[4-(propan-2-yl)piperazin-1-yl]phenyl}-4-methyl-4-(5-methyl-1,2,4-oxadiazol-3-yl)piperidine-1-carboxamide]",145
23,"CC(C)N1CCN(c2cccc(F)c2NC(=O)N2CCC(C)(c3noc(C4(C)CC4)n3)CC2)CC1 [Example 79, N-{2-fluoro-6-[4-(propan-2-yl)piperazin-1-yl]phenyl}-4-methyl-4-[5-(1-methylcyclopropyl)-1,2,4-oxadiazol-3-yl]piperidine-1-carboxamide]",156
24,"Cc1nc(C2(C)CCN(C(=O)Nc3ccccc3N3CCN(C(C)C)CC3)CC2)no1 [Example 120, 4-methyl-4-(5-methyl-1,2,4-oxadiazol-3-yl)-N-{2-[4-(propan-2-yl)piperazin-1-yl]phenyl}piperidine-1-carboxamide]",125
25,"COc1cccc(N2CCN(C(C)C)CC2)c1NC(=O)N1CCC(C)(c2noc(C(F)(F)F)n2)CC1 [Example 25, N-{2-methoxy-6-[4-(propan-2-yl)piperazin-1-yl]phenyl}-4-methyl-4-[5-(trifluoromethyl)-1,2,4-oxadiazol-3-yl]piperidine-1-carboxamide]",136
26,"CC(C)N1CCN(c2cccc(Cl)c2NC(=O)N2CCC(C)(c3noc([C@@H]4C[C@@H]4C)n3)CC2)CC1 (racemic) [Example 104, Rac-N-{2-chloro-6-[4-(propan-2-yl)piperazin-1-yl]phenyl}-4-methyl-4-{5-[(1R,2S)-2-methylcyclopropyl]-1,2,4-oxadiazol-3-yl}piperidine-1-carboxamide]",180
27,"CCOc1cccc(C2CCN(C(C)C)CC2)c1NC(=O)N1CCC(c2ccc(C)cc2)CC1 [Example 127, N-{2-ethoxy-6-[1-(propan-2-yl)piperidin-4-yl]phenyl}-4-(4-methylphenyl)piperidine-1-carboxamide]",145
28,"CC(C)N1CCN(c2cccc(F)c2NC(=O)N2CCC(C)(c3cc(C4CC4)on3)CC2)CC1 [Example 54, 4-(5-cyclopropyl-1,2-oxazol-3-yl)-N-{2-fluoro-6-[4-(propan-2-yl)piperazin-1-yl]phenyl}-4-methylpiperidine-1-carboxamide]",140
29,"Cc1ccc(C2CCN(C(=O)Nc3c(Cl)cccc3C3=CCN(C(C)C)CC3)CC2)cc1 [Example 132, N-{2-chloro-6-[1-(propan-2-yl)-1,2,3,6-tetrahydropyridin-4-yl]phenyl}-4-(4-methylphenyl)piperidine-1-carboxamide]",171
30,"CC(C)c1nc(C2(C)CCN(C(=O)Nc3c(F)cccc3N3CCN(C(C)C)CC3)CC2)no1 [Example 20, N-{2-fluoro-6-[4-(propan-2-yl)piperazin-1-yl]phenyl}-4-methyl-4-[5-(propan-2-yl)-1,2,4-oxadiazol-3-yl]piperidine-1-carboxamide]",111
